Measurements published in ChEMBL document CHEMBL1201862, “PubChem BioAssay data set” (2004).
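Five concentrations, 48 hours, 96-well plates. GI50 is the concentration that inhibits growth by half.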 The source made the active and inactive calls. Cut-off read from the data, not from the text of the source: active = GI50 up to about 1.1 µM and inactive = higher.

Columns and labels:
Assay in all cases: NCI tumour cell line growth inhibition, 48 h
786-0 = test system: 786-0
A498 = test system: A498
A549 = test system: A549
ACHN = test system: ACHN
BT-549 = test system: BT-549
CAKI-1 = test system: CAKI-1
CCRF-CEM = test system: CCRF-CEM
COLO 205 = test system: COLO 205
DU-145 = test system: DU-145
HCC 2998 = test system: HCC 2998
HCT-116 = test system: HCT-116
HCT-15 = test system: HCT-15
HL-60 = test system: HL-60
HOP-62 = test system: HOP-62
HOP-92 = test system: HOP-92
HT-29 = test system: HT-29
Hs-578T = test system: Hs-578T
IGROV-1 = test system: IGROV-1
K562 = test system: K562
KM12 = test system: KM12
LOX IMVI = test system: LOX IMVI
M14 = test system: M14
MCF7 = test system: MCF7
MDA-MB-231 = test system: MDA-MB-231
MDA-MB-435 = test system: MDA-MB-435
MOLT-4 = test system: MOLT-4
NCI-H226 = test system: NCI-H226
NCI-H23 = test system: NCI-H23
NCI-H460 = test system: NCI-H460
NCI/ADR-RES = test system: NCI/ADR-RES
OVCAR-3 = test system: OVCAR-3
OVCAR-4 = test system: OVCAR-4
OVCAR-5 = test system: OVCAR-5
OVCAR-8 = test system: OVCAR-8
PC-3 = test system: PC-3
RPMI-8226 = test system: RPMI-8226
RXF 393 = test system: RXF 393
SF-268 = test system: SF-268
SF-539 = test system: SF-539
SK-MEL-28 = test system: SK-MEL-28
SK-MEL-2 = test system: SK-MEL-2
SK-MEL-5 = test system: SK-MEL-5
SK-OV-3 = test system: SK-OV-3
SN12C = test system: SN12C
SNB-19 = test system: SNB-19
SNB-75 = test system: SNB-75
SR = test system: SR
SW-620 = test system: SW-620
T47D = test system: T47D
U-251 = test system: U-251
UACC-257 = test system: UACC-257
UACC-62 = test system: UACC-62
EKVX = test system: EKVX
MDA-N = test system: MDA-N
Malme-3M = test system: Malme-3M
NCI-H522 = test system: NCI-H522
TK-10 = test system: TK-10
UO-31 = test system: UO-31

Measured: GI50

C=CCc1cccc2cc(C(=O)Nc3ccccn3)c(=N)oc12
> 100 µM: HCT-15
inactive: 786-0 28.7 µM | A498 > 100 µM | A549 > 100 µM | ACHN 45.4 µM | BT-549 > 100 µM | CAKI-1 > 100 µM | CCRF-CEM > 100 µM | COLO 205 > 100 µM | DU-145 > 100 µM | HCC 2998 > 100 µM | HCT-116 56.6 µM | HL-60 > 100 µM | HOP-62 > 100 µM | HOP-92 > 100 µM | HT-29 > 100 µM | Hs-578T > 100 µM | IGROV-1 > 100 µM | K562 > 100 µM | KM12 > 100 µM | LOX IMVI > 100 µM | M14 > 100 µM | MCF7 > 100 µM | MDA-MB-231 > 100 µM | MDA-MB-435 > 100 µM | MOLT-4 > 100 µM | NCI-H226 > 100 µM | NCI-H23 > 100 µM | NCI-H460 > 100 µM | NCI/ADR-RES > 100 µM | OVCAR-3 > 100 µM | OVCAR-4 > 100 µM | OVCAR-5 > 100 µM | OVCAR-8 > 100 µM | PC-3 > 100 µM | RPMI-8226 > 100 µM | RXF 393 > 100 µM | SF-268 > 100 µM | SF-539 92.5 µM | SK-MEL-28 > 100 µM | SK-MEL-2 > 100 µM | SK-MEL-5 > 100 µM | SK-OV-3 > 100 µM | SN12C > 100 µM | SNB-19 > 100 µM | SNB-75 > 100 µM | SR > 100 µM | SW-620 > 100 µM | T47D 55.5 µM | U-251 > 100 µM | UACC-257 > 100 µM | UACC-62 > 100 µM

CC1(C)CCC2=C(O1)c1ccccc1/C(=N/c1ccc([N+](=O)[O-])cc1)C2=O
active: HL-60 0.728 µM
inactive: 786-0 20 µM | A498 18.7 µM | A549 16.4 µM | ACHN 12.9 µM | BT-549 20.1 µM | CAKI-1 16.7 µM | EKVX 16.4 µM | HCC 2998 17.7 µM | HCT-116 7.33 µM | HOP-62 17.1 µM | HOP-92 39.1 µM | HT-29 12.7 µM | Hs-578T 29 µM | IGROV-1 51.1 µM | K562 13.4 µM | KM12 14.5 µM | M14 8.24 µM | MCF7 13.2 µM | MDA-MB-231 17.7 µM | MDA-N 14.9 µM | MOLT-4 13.8 µM | Malme-3M 16 µM | NCI-H226 12.4 µM | NCI-H460 15.5 µM | NCI-H522 13.6 µM | NCI/ADR-RES 21.2 µM | OVCAR-3 12.3 µM | OVCAR-4 15.1 µM | OVCAR-8 14 µM | PC-3 14 µM | RXF 393 16.5 µM | SF-268 29.7 µM | SK-MEL-28 16.3 µM | SK-MEL-2 16.1 µM | SK-MEL-5 16.7 µM | SK-OV-3 17.7 µM | SNB-19 18.5 µM | SNB-75 18.3 µM | SR 14.2 µM | SW-620 16.1 µM | T47D 11.8 µM | TK-10 18.6 µM | U-251 14.4 µM | UACC-257 16.5 µM | UACC-62 14.7 µM | UO-31 10.6 µM
31 µM: HCT-15
